We go through 4 compounds from paper PMC10763179 (Open access Macedonian journal of medical sciences, 2023).

Data set [1] relates to larvae of marine crustaceans Artemia salina (Leach). In words: Brine shrimp toxicity bioassay. The format is in vivo. Conditions: 24 h of exposure.
In another data set the test system is HL-60(TB). In words: NCI60 screen. The format is cell-based. The note with it: Homo sapiens, HL-60, read-out: inhibition of cell growth.
Another data set deals with K-562. In words: NCI60 screen. The data set is classed as cell-based. The note with it: Homo sapiens, K562, read-out: inhibition of cell growth.
Another data set has as its system SR. In words: NCI60 screen. The format is cell-based. The note with it: Homo sapiens, read-out: inhibition of cell growth.
Another data set deals with COLO 205. The data set is described as follows: NCI60 screen. The data set is classed as cell-based. Conditions: Homo sapiens, COLO 205, read-out: inhibition of cell growth.
The subject of the next data set is HCT-116. In words: NCI60 screen. The format is cell-based. The note with it: Homo sapiens, HCT-116, read-out: inhibition of cell growth.
The next data set concerns HCT-15. The data set is described as follows: NCI60 screen. The data set is classed as cell-based. Conditions: Homo sapiens, HCT-15, read-out: inhibition of cell growth.
The next data set concerns HT29. In words: NCI60 screen. Conditions: Homo sapiens, HT-29, read-out: inhibition of cell growth. The format is cell-based.
A further data set concerns SW-620. In words: NCI60 screen. Conditions: Homo sapiens, SW-620, read-out: inhibition of cell growth. The data set is classed as cell-based.
In a further data set the test system is MDA-MB-435. The data set is described as follows: NCI60 screen. The data set is classed as cell-based. The note with it: Homo sapiens, MDA-MB-435, read-out: inhibition of cell growth.
A further data set has as its system UACC-257. The data set is described as follows: NCI60 screen. Conditions: Homo sapiens, UACC-257, read-out: inhibition of cell growth. The format is cell-based.
Another data set concerns UACC-62. The data set is described as follows: NCI60 screen. The data set is classed as cell-based. The note with it: Homo sapiens, UACC-62, read-out: inhibition of cell growth.
For a further data set, the system named is OVCAR-3. The data set is described as follows: NCI60 screen. The format is cell-based. Conditions: Homo sapiens, OVCAR-3, read-out: inhibition of cell growth.
The subject of a further data set is CAKI-1. In words: NCI60 screen. The format is cell-based. Conditions: Homo sapiens, CAKI-1, read-out: inhibition of cell growth.
In another data set the test system is RXF 393. In words: NCI60 screen. The format is cell-based. The note with it: Homo sapiens, RXF 393, read-out: inhibition of cell growth.
A further data set relates to TK-10. The data set is described as follows: NCI60 screen. The format is cell-based. Conditions: Homo sapiens, TK-10, read-out: inhibition of cell growth.
A further data set relates to DU-145. In words: NCI60 screen. The format is cell-based. The note with it: Homo sapiens, DU-145, read-out: inhibition of cell growth.
In the next data set the test system is MCF7. The data set is described as follows: NCI60 screen. Conditions: Homo sapiens, MCF7, read-out: inhibition of cell growth. The format is cell-based.
The subject of the next data set is BT-549. The data set is described as follows: NCI60 screen. The data set is classed as cell-based. The note with it: Homo sapiens, BT-549, read-out: inhibition of cell growth.
The next data set concerns T-47D. The data set is described as follows: NCI60 screen. The format is cell-based. Conditions: Homo sapiens, T47D, read-out: inhibition of cell growth.
For data set [2], the system named is NCI60 human tumor cell lines. In words: NCI60 screen. The format is cell-based.
Data set [3] is described as follows: Immunosuppressive activity.

Consider `CC1=CCC23OC2(C)CCC2C(CN(C)C)C(=O)OC2C13.Cl` (stereo not drawn) [13-dimethylamino-1,10β-epoxy-5,7α,6, 11 β(H)-guai-3,4-ene-6,12-olide hydrochloride, reference compound], for which, in data set [1], the “LD500” value is reported as 20.6 mg/mL.
One may read the inhibition as the relative decrease from the control value, in per cent. Consider `C=C1C(=O)O[C@@H]2[C@H]3C(C)=CC[C@@]34O[C@@]4(C)CC[C@@H]12` [Arglabin 6, arglabin], for which the inhibition at 8.3 µM in the data set on HL-60(TB) was determined as 97.4%; in the data set on K-562, 73.8%; in the data set on SR, 97.8%; in the data set with COLO 205, 57.6%; in the data set on HCT-116 it was 82.6%; with HCT-15, 75.4%. For the same compound, the inhibition at 8.3 µM with HT29 worked out at 59.3%; with SW-620 it was 70.9%; in the data set with MDA-MB-435, 65.8%; in the data set on UACC-257, 55.9%; in the data set on UACC-62 it was 74.2%; in the data set on OVCAR-3 it was 69.6%. Further, the inhibition at 8.3 µM with CAKI-1 was determined as 73.4%; in the data set on RXF 393, 67.3%; with TK-10, 94.3%; in the data set with DU-145, 88.5%; with MCF7, 71.1%; in the data set with BT-549 it was 72.1%. The inhibition at 8.3 µM is 73.5% in the data set with T-47D and 45.9% in data set [2] (Homo sapiens, read-out: average value of cell growth inhibition for all 60 NCI60 human tumor cell lines). The “Mean tumor cell growth, %” value in data set [2] (mean over NCI60 panel, single dose 8.3 μM) turned out to be 54.15%. For the same compound, in “Effect on hematopoiesis”, the “depressant effect on hematopoiesis” value is listed as “does not have a depressant effect on hematopoiesis”. The immunosuppressive activity entry in data set [3] is on record as “does not exhibit immunosuppressive activity”.
`C[S+](C)[O-]` [dimethyl sulfoxide]: the “LD500” value in data set [1] is 930.27 mg/mL.
“hydroxyarglabin acetate [hydroxyarglabin acetate 12]”: in data set [1], the “IC50 against the larvae of Artemia salina” value came to 77.8 µg/mL and the “LD500” value was determined as 77.8 mg/mL.
